The results in this text go back to ChEMBL document CHEMBL1201862, “PubChem BioAssay data set” (2004).

Among the test systems are BT-549; CAKI-1; CCRF-CEM; HCT-116; HOP-62; IGROV-1; K562; LOX IMVI; MCF7; MOLT-4; NCI-H226; OVCAR-3; OVCAR-8; PC-3; RXF 393; SF-268; SK-MEL-2; SN12C; SNB-75; UACC-62.
Common to all, as to assay: NCI tumour cell line growth inhibition, 48 h

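How tested: cells in 96-well plates exposed to compound for 48 hours at five concentrations. GI50 is the concentration that inhibits growth by half.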 Active and inactive are the calls of the source. Rule as the data show it: active = GI50 up to about 1.1 µM and inactive = higher.

For `O=C1NC(Nc2ccccc2)=N/C1=C\c1c(Cl)cccc1Cl`, the GI50 with BT-549 was > 100 µM (inactive); with CAKI-1, 48.1 µM (inactive); with CCRF-CEM, 14.3 µM (inactive); with HCT-116, 27.4 µM (inactive); in the experiment with HOP-62, 28.2 µM (inactive); in the experiment with IGROV-1 it was 17.8 µM (inactive). Also, the GI50 is 21 µM (inactive) in the experiment with K562; 62.7 µM (inactive) in the experiment on LOX IMVI; 19.4 µM (inactive) with MCF7; 20.7 µM (inactive) in the experiment on MOLT-4; 16.7 µM (inactive) with NCI-H226; 63.4 µM (inactive) with OVCAR-3. The GI50 is 19.1 µM (inactive) in the experiment on OVCAR-8; 17.8 µM (inactive) in the experiment with PC-3; 17.8 µM (inactive) in the experiment with RXF 393; 29.3 µM (inactive) in the experiment with SF-268; 18 µM (inactive) in the experiment on SK-MEL-2; 15.7 µM (inactive) in the experiment with SN12C. Further, the values for the GI50 with SNB-75 and in the experiment with UACC-62 were 18.9 µM (inactive) and 21.6 µM (inactive), respectively.

As for `CC(=O)OCC1OC(n2c(C)cc(C)c(C#N)c2=S)C(OC(C)=O)C(OC(C)=O)C1OC(C)=O` (stereo not given), the GI50 in the experiment with BT-549, in the experiment on CAKI-1, in the experiment with CCRF-CEM, in the experiment with HCT-116, with HOP-62 and in the experiment with IGROV-1 was > 100 µM (inactive) each time. Moreover, the GI50 with K562, in the experiment with LOX IMVI, with MCF7, with MOLT-4, with NCI-H226 and in the experiment on OVCAR-3 was > 100 µM (inactive) each time. Further, the GI50 with OVCAR-8, in the experiment with PC-3, in the experiment on RXF 393, with SF-268, with SK-MEL-2 and in the experiment with SN12C was > 100 µM (inactive) each time. For the same compound, the GI50 with SNB-75 and in the experiment with UACC-62 was > 100 µM (inactive) in each case.

Take `COCOc1c(C(OCOC)c2cnc(Sc3ccccc3)n2C)ccc(OC)c1OC` (stereo not given): the GI50 in the experiment with BT-549, in the experiment on CAKI-1, in the experiment on CCRF-CEM, in the experiment with HCT-116, with HOP-62 and in the experiment with IGROV-1 was > 100 µM (inactive) each time. Besides, the GI50 with K562 was > 100 µM (inactive); with LOX IMVI, > 100 µM (inactive); in the experiment with MCF7 it was > 100 µM (inactive); with MOLT-4 it was 87.1 µM (inactive); in the experiment on NCI-H226 it was 76.7 µM (inactive); in the experiment with OVCAR-3 it was > 100 µM (inactive). The GI50 with OVCAR-8 is > 100 µM (inactive); with PC-3, > 100 µM (inactive); in the experiment with RXF 393, 83.4 µM (inactive); with SF-268 it was > 100 µM (inactive); in the experiment on SK-MEL-2, > 100 µM (inactive); with SN12C, > 100 µM (inactive). Moreover, the GI50 was 35.3 µM (inactive) with SNB-75 and > 100 µM (inactive) in the experiment with UACC-62.

Turning to `CCOC(=O)C(NC(=O)c1ccccc1)(N1CCN(c2cc3c(cc2F)c(=O)c(C(=O)O)cn3CC)CC1)C(F)(F)F` (stereo not given), the GI50 was 35.9 µM (inactive) with BT-549; 21.4 µM (inactive) with CAKI-1; 21.8 µM (inactive) with CCRF-CEM; 33.9 µM (inactive) with HCT-116; 31.2 µM (inactive) with HOP-62; 38.4 µM (inactive) with IGROV-1. In addition, the GI50 in the experiment on K562 was 31.8 µM (inactive); in the experiment with LOX IMVI, 15.6 µM (inactive); in the experiment with MCF7, 26.6 µM (inactive); in the experiment with MOLT-4, 21.5 µM (inactive); in the experiment with NCI-H226, 29.2 µM (inactive); in the experiment with OVCAR-3 it was 31.3 µM (inactive). In addition, the GI50 was 19.2 µM (inactive) in the experiment on OVCAR-8; 31.3 µM (inactive) with PC-3; 33.8 µM (inactive) in the experiment with RXF 393; 40.9 µM (inactive) in the experiment with SF-268; 31.5 µM (inactive) in the experiment on SK-MEL-2; 32.9 µM (inactive) in the experiment on SN12C. In addition, the values for the GI50 with SNB-75 and in the experiment on UACC-62 were 26.1 µM (inactive) and 29.6 µM (inactive), respectively.

In the case of `Cc1csc(-n2nc(C)cc2C)n1`, the GI50 in the experiment with BT-549, in the experiment on CAKI-1, in the experiment with CCRF-CEM, in the experiment with HCT-116, with HOP-62 and in the experiment on IGROV-1 was > 100 µM (inactive) in each case. For the same compound, the GI50 in the experiment with K562 was > 100 µM (inactive); in the experiment with LOX IMVI, > 100 µM (inactive); in the experiment on MCF7, > 100 µM (inactive); in the experiment with MOLT-4, 2.38 µM (inactive); with NCI-H226, > 100 µM (inactive); with OVCAR-3, > 100 µM (inactive). Moreover, the GI50 with OVCAR-8, with PC-3, in the experiment with RXF 393, in the experiment with SF-268, in the experiment with SK-MEL-2 and in the experiment with SN12C was > 100 µM (inactive) throughout. Also, the GI50 in the experiment on SNB-75 and with UACC-62 was > 100 µM (inactive) throughout.

For the compound `Cc1ccc(/C=C2\CCCC(CN(C)C)C2=O)cc1` (stereo not given), the GI50 in the experiment on BT-549 was 2.49 µM (inactive); with CAKI-1, 1.55 µM (inactive); in the experiment with CCRF-CEM, 1.26 µM (inactive); in the experiment with HCT-116 it was 1.69 µM (inactive); in the experiment with HOP-62, 20.4 µM (inactive); in the experiment with IGROV-1, 1.96 µM (inactive). Besides, the GI50 is 1.66 µM (inactive) in the experiment on K562; 1.77 µM (inactive) in the experiment with LOX IMVI; 0.525 µM (active) with MCF7; 2.28 µM (inactive) with MOLT-4; 2.56 µM (inactive) in the experiment with NCI-H226; 1.76 µM (inactive) in the experiment on OVCAR-3. Moreover, the GI50 in the experiment on OVCAR-8 was 3.04 µM (inactive); with PC-3, 3.33 µM (inactive); with RXF 393 it was 1.79 µM (inactive); in the experiment with SF-268, 2.06 µM (inactive); in the experiment with SK-MEL-2, 4.76 µM (inactive); in the experiment on SN12C, 1.91 µM (inactive). Besides, the GI50 is 8.13 µM (inactive) with SNB-75 and 2.03 µM (inactive) in the experiment with UACC-62.

With `Cn1c(=O)c2c([nH]/c(=N/N=C/c3ccccc3C(=O)O)n2C)n(C)c1=O`, the GI50 with BT-549, in the experiment on CAKI-1, in the experiment on CCRF-CEM, in the experiment on HCT-116, in the experiment on HOP-62 and in the experiment on IGROV-1 was > 100 µM (inactive) throughout. The GI50 in the experiment with K562, in the experiment with LOX IMVI, in the experiment on MCF7, in the experiment on MOLT-4, in the experiment on NCI-H226 and in the experiment with OVCAR-3 was > 100 µM (inactive) throughout. Further, the GI50 with OVCAR-8, in the experiment on PC-3, in the experiment with RXF 393, in the experiment with SF-268, with SK-MEL-2 and with SN12C was > 100 µM (inactive) each time. Also, the GI50 with SNB-75 and in the experiment on UACC-62 was > 100 µM (inactive) each time.

Take `C=CCSSCC=C`: the GI50 is 42.3 µM (inactive) with BT-549; 44.8 µM (inactive) in the experiment with CAKI-1; 1.98 µM (inactive) in the experiment with CCRF-CEM; 13.6 µM (inactive) with HCT-116; > 71.9 µM (inactive) in the experiment on HOP-62; > 71.6 µM (inactive) in the experiment on IGROV-1. In addition, the GI50 with K562 was 5.5 µM (inactive); in the experiment on LOX IMVI, 9.73 µM (inactive); in the experiment with MCF7 it was 30.3 µM (inactive); in the experiment with MOLT-4 it was 1.8 µM (inactive); in the experiment on NCI-H226 it was 32.1 µM (inactive); in the experiment with OVCAR-3, 52 µM (inactive). In addition, the GI50 was 27.6 µM (inactive) in the experiment on OVCAR-8; 39.8 µM (inactive) with PC-3; 32.3 µM (inactive) with RXF 393; 47.9 µM (inactive) in the experiment on SF-268; > 71.1 µM (inactive) in the experiment with SK-MEL-2; 36.7 µM (inactive) in the experiment on SN12C. For the same compound, the GI50 with SNB-75 was 60.8 µM (inactive); with UACC-62, 44.3 µM (inactive).

On to `Cc1nc2sc3ccccc3n2c(=O)c1/N=N/c1ccc(Cl)cc1`, for which the GI50 in the experiment on BT-549, in the experiment with CAKI-1, in the experiment on CCRF-CEM, in the experiment on HCT-116, in the experiment with HOP-62 and with IGROV-1 was > 100 µM (inactive) throughout. Moreover, the GI50 in the experiment with K562, with LOX IMVI, with MCF7, in the experiment on MOLT-4, in the experiment with NCI-H226 and in the experiment on OVCAR-3 was > 100 µM (inactive) each time. Also, the GI50 in the experiment with OVCAR-8, in the experiment with PC-3, in the experiment on RXF 393, in the experiment with SF-268, in the experiment on SK-MEL-2 and in the experiment on SN12C was > 100 µM (inactive) throughout. Besides, the GI50 in the experiment with SNB-75 and in the experiment on UACC-62 was > 100 µM (inactive) in each case.
